Data set [1] concerns Human umbilical vein endothelial cells (HUVEC). Kind of data set: Cell proliferation assay (HUVEC). Format: cell-based. The conditions noted are these: 72 hours, WST-1, read-out: 50% growth inhibition concentration (IC50 value) HUVEC. As to the method:
(§1) The test compound was serially diluted with DMSO, and then diluted 1:50 with a Ca^2+,Mg^2+-free phosphate-buffered physiological saline. The resulting dilution (10 μl) was dispensed into a 96-well plate. Human umbilical vein endothelial cells (HUVEC, purchased from Clonetics) were suspended in PRMI 1640 medium supplemented with 10% bovine fetal serum, 30 μg/mL vascular endothelial cell growth supplement, and 50 μg/mL heparin. Human lung carcinoma cell line Calu-6 was suspended in MEM medium supplemented with 10% bovine fetal serum, 0.1 mM nonessential amino acid, and 1 mM sodium pyruvate. Each cell suspension (190 μL) was dispensed into the plate containing the test compound such that the cell count per well was 3,000 cells. The plate was incubated in a CO2 incubator (37° C., 5% CO2). After 72 hours, 20 μL WST-1 (produced by Roche Diagnostics) was added to each well and, after 2 hours of incubation, the absorbance at 450 nm (reference wavelength: 650 nm) was measured. The 50% growth inhibition concentration (IC50 value) of the test compound was calculated from the inhibition rate obtained when the test compound was added, in comparison with the reference value obtained when the test compound was not added.
(§2) The IC50 values, for HUVEC and Calu-6, of representative examples of the compounds of the present invention are shown in Table 1.

In data set [2] the test system is Human lung carcinoma cell line Calu-6. Kind of data set: Cell proliferation assay (Calu-6). The format is cell-based. The note with it: Calu-6, 72 hours, WST-1, read-out: 50% growth inhibition concentration (IC50 value) Calu-6. Here is the method: as §1, §2
Background: Formazan colour is commonly taken as a measure of viable cells.

For another data set, the system named is HUVEC. Kind of data set: Tube formation assay. The note with it: Homo sapiens, 264 h, 11 days of incubation, CD31 staining, read-out: capillary-like tube formation inhibition rates (%). Format: cell-based. As to the method:
An angiogenesis measurement kit (produced by KURABO) was charged with the test compound at final concentration of 20 μM, and incubated in a CO2 incubator (37° C., 5%). After 11 days of incubation, capillary-like tubes formed were fixed with 70% ethanol and visualized with a CD31 staining kit (produced by KURABO). Under a microscope, stain images of the wells were photographed, stored as an image file, and measured for the area of capillary-like tube formation by use of angiogenesis quantitative determination software of KURABO. The inhibition rates (%) of the test compound-charged wells were calculated, with the control taken as 100%.
The capillary-like tube formation inhibiting rates at 20 μM, against HUVEC, of representative examples of the compounds of the present invention are shown in Table 2.

Data set [3] has as its system human lung carcinoma cell line Calu-6. Kind of data set: Antitumor test (Calu-6 xenograft). Format: in vivo, Balb/c nude mice. The conditions noted are these: 600 mg/kg, orally once daily for 11 days, mice. Here is the method: (§3) A cell suspension of human lung carcinoma cell line Calu-6 was prepared using Hanks' balanced salt solution, and 5.0×10^6 of the cells were implanted subcutaneously in the flank region of female Balb/c nude mice. When the volume of the tumor reached 200 to 250 mm^3, the test compound was orally administered once daily for 11 days. The tumor volume was calculated from the equation π/6×(long diameter×short diameter×thickness). The tumor growth inhibition rate was calculated from changes in the tumor volume in the test compound treatment group relative to changes in the tumor volume in the control group.
(§4) The results of the antitumor test of compound 1-1-1 and compound 2-1-1, as representative examples of the compounds of the present invention, are shown in FIGS. 1-(A) and 1-(B) and 2-(A) and 2-(B).

The subject of data set [4] is blood vessels in the tumor tissue (Calu-6 xenograft). The data set can be described thus: Measurement of the number of blood vessels in the tumor. The format is in vivo, Balb/c nude mice. The note with it: 600 mg/kg, orally once daily for 11 days, mice, relative to control group. The source says:
Measurement of the Number of Blood Vessels in the Tumor
5.0×10^6 Cells of human lung carcinoma cell line Calu-6 were implanted subcutaneously in the flank region of female Balb/c nude mice. When the volume of tumor reached 200 to 250 mm^3, the test compound was orally administered once daily for 11 days. Twenty-four hours after the final administration, xenograft tissue was removed from the mice, and a middle portion of the long diameter of the tumor was embedded, as a block 2 to 3 mm thick, in O.C.T. Compound, and preserved as a frozen tissue specimen. Frozen sections were prepared, and blood vessels in the tumor tissue were stained by an immunohistological method using anti-mouse CD31 antibody. The stained tissue was photographed under a microscope, and the images were stored as an image file. The number of the stained blood vessels was measured by Image Pro (Promega). The decrease rate of blood vessel density was calculated as a decrease rate relative to the blood vessel density in the control group.
The decrease rates of the blood vessel density in the tumor tissue following treatment with 600 mg/kg of compound 1-1-1 and compound 2-1-1, as representative examples of the compounds of the present invention, are shown in Table 3.

Data set [5] is described as follows: Body weight and toxicity findings in the antitumor test. The format is in vivo. The note with it: 600 mg/kg, orally once daily for 11 days. As to the method:
as §3, §4

Broadly, the inhibition is the share of the control response that was lost under treatment. As to `COc1ccc(C(N)=O)cc1C(=O)Nc1cc(C(F)(F)F)ccc1Cl` [Compound 1-3-16, 3-N-(2-chloro-5-trifluoromethylphenyl)-4-methoxyisophthalamide], the IC50 was 4600 nM in data set [1] and > 50000 nM in data set [2]. In the data set with HUVEC, the inhibition at 20 µM was 80%.
In the same order, the values of `COc1ccc(C(N)=O)cc1C(=O)Nc1ccc(C(F)(F)F)cc1` [Compound 1-3-21, 4-methoxy-3-N-(4-trifluoromethylphenyl)isophthalamide] are 5100 nM, > 50000 nM and 71%.
In the same order, the values of `COc1ccc(C(N)=O)cc1C(=O)Nc1ccccc1OC(F)(F)F` [Compound 1-3-5, 4-methoxy-3-N-(2-trifluoromethoxyphenyl)-isophthalamide] are 140 nM, > 50000 nM and 91%.
In the same order, the values of `COc1ccc(C(=O)NC2CCCC2)cc1/C=C/c1ccc(OC(F)(F)F)cc1` [Compound 2-2-1, N-cyclopentyl-4-methoxy-3-[(E)-2-(4-trifluoromethoxy-phenyl)vinyl]benzamide] are 3350 nM, > 50000 nM and 60%.
With `COc1ccc(C(N)=O)cc1C(=O)Nc1cccc(C(F)(F)F)c1F` [Compound 1-3-8, 3-N-(2-fluoro-3-trifluoromethylphenyl)-4-methoxyisophthalamide], the IC50 in data set [1] is 350 nM; in data set [2], > 50000 nM.
On to `COc1ccc(C(N)=O)cc1C(=O)Nc1ccccc1Cl` [Compound 1-3-7, 3-N-(2-chlorophenyl)-4-methoxyisophthalamide], for which the results for the IC50 in data set [1] and in data set [2] were 280 nM and > 50000 nM, respectively. The inhibition at 20 µM in the data set with HUVEC turned out to be 67%.
For the molecule `COc1ccc(C(N)=O)cc1C(=O)Nc1cccc(Cl)c1Cl` [Compound 1-3-2, 3-N-(2,3-dichlorophenyl)-4-methoxyisophthalamide], the values for the IC50 in data set [1] and in data set [2] were 150 nM and > 50000 nM, respectively.
With `COc1ccc(C(N)=O)cc1C(=O)Nc1ccc(F)cc1F` [Compound 1-3-24, 3-N-(2,4-difluorophenyl)-4-methoxyisophthalamide], the figures for the IC50 in data set [1] and in data set [2] were 5190 nM and > 50000 nM, respectively. For the same molecule, the inhibition at 20 µM in the data set on HUVEC was 28%.
For `COc1ccc(C(N)=O)cc1C(=O)Nc1cccc2c1CCCC2` [Compound 1-3-6, 4-methoxy-3-N-(5,6,7,8-tetrahydronaphthalen-1-yl)isophthalamide], the IC50 in data set [1] was 240 nM; in data set [2], > 50000 nM. The inhibition at 20 µM with HUVEC turned out to be 46%.
On the same counts, the results for `COc1cc(NC(=O)c2cc(C(N)=O)ccc2OC)cc(OC)c1` [Compound 1-3-18, 3-N-(3,5-dimethoxyphenyl)-4-methoxyisophthalamide] are 1250 nM, > 50000 nM and 29%.
On the same counts, the results for `COc1ccc(C(N)=O)cc1C(=O)Nc1ccc(OC(F)(F)F)cc1` [Compound 1-2-1, 3-N-(4-trifluoromethoxyphenyl)-4-methoxyisophthalamide] are 2400 nM, > 100000 nM and 68%.
Consider `COc1ccc(C(N)=O)cc1C(=O)Nc1ccc(Br)cc1Br` [Compound 1-3-45, 3-N-(2,4-dibromophenyl)-4-methoxyisophthalamide], for which the IC50 in data set [1] is 50 nM; in data set [2], > 50000 nM. In the data set on HUVEC, the inhibition at 20 µM stood at 31%.
For the molecule `COc1ccc(C(N)=O)cc1/C=C/c1ccc(OC(F)(F)F)cc1` [Compound 2-1-1, 4-methoxy-3-[(E)-2-(4-trifluoromethoxyphenyl)vinyl]benzamide], the IC50 in data set [1] came to 170 nM. Moreover, the IC50 in data set [2] is > 100000 nM. In addition, the inhibition at 20 µM in the data set with HUVEC was determined as 93%. For the same molecule, the “tumor growth inhibition rates (TGI)” value in data set [3] is reported as 75%. Besides, the “Decrease (%) in intratumor blood vessel density” value in data set [4] is 37%. In addition, in data set [5], the “body weights of the mice” value is reported as “no decreases in the body weights of the mice were observed” and the findings of toxicity result was “no findings of toxicity observed”.
With `COc1ccc(C(N)=O)cc1C(=O)Nc1ccc(Br)cc1F` [Compound 1-3-1, 3-N-(4-bromo-2-fluorophenyl)-4-methoxy-isophthalamide], the figures for the IC50 in data set [1] and in data set [2] were 190 nM and > 50000 nM, respectively.
As for `CCNC(=O)c1ccc(OC)c(/C=C/c2ccc(Cl)cc2)c1` [Compound 2-2-9, 3-[(E)-2-(4-chlorophenyl)-vinyl]-N-ethyl-4-methoxy-benzamide], the IC50 in data set [1] is 1410 nM; in data set [2] it was > 25000 nM. Moreover, the inhibition at 20 µM in the data set with HUVEC stood at 79%.
On the same counts, the results for `COc1ccc(C(N)=O)cc1C(=O)Nc1ccccc1F` [Compound 1-3-12, 3-N-(2-fluorophenyl)-4-methoxyisophthalamide] are 2540 nM, > 50000 nM and 27%.
In the same order, the values of `COc1ccc(C(N)=O)cc1C(=O)Nc1cccc2ncccc12` [Compound 1-3-39, 4-methoxy-3-N-quinolin-5-yl-isophthalamide] are 2360 nM, > 25000 nM and 20%.
Regarding `COc1ccccc1NC(=O)c1cc(C(N)=O)ccc1OC` [Compound 1-3-10, 4-methoxy-3-N-(2-methoxyphenyl)isophthalamide], the IC50 in data set [1] is 760 nM; in data set [2], > 50000 nM. In addition, the inhibition at 20 µM with HUVEC came out at 46%.
On the same counts, the results for `COc1ccc(C(N)=O)cc1C(=O)Nc1cc(C)c(F)cc1Cl` [Compound 1-3-17, 3-N-(2-chloro-4-fluoro-5-methylphenyl)-4-methoxyisophthalamide] are 1200 nM, > 25000 nM and 80%.
In the same order, the values of `COc1ccc(C(N)=O)cc1C(=O)Nc1ccccc1C` [Compound 1-3-23, 4-methoxy3-N-o-tolylisophthalamide] are 2850 nM, > 50000 nM and 27%.
In the same order, the values of `COc1ccc(C(N)=O)cc1C(=O)Nc1ccc(Br)cc1Cl` [Compound 1-3-41, 3-N-(4-bromo-2-chlorophenyl)-4-methoxyisophthalamide] are 40 nM, > 50000 nM and 82%.
Regarding `CNC(=O)c1ccc(OC)c(/C=C/c2ccc(OC(F)(F)F)cc2)c1` [Compound 2-2-2, 4-methoxy-N-methyl-3-[(E)-2-(4-trifluoromethoxyphenyl)-vinyl]-benzamide], the results for the IC50 in data set [1] and in data set [2] were 2270 nM and > 50000 nM, respectively. In addition, in the data set on HUVEC, the inhibition at 20 µM was determined as 77%.
With `COc1ccc(C(N)=O)cc1C(=O)Nc1ccc(Cl)cc1` [Compound 1-1-1, 3-N-(4-chlorophenyl)-4-methoxyisophthalamide], in data set [1], the IC50 amounted to 2270 nM. Also, in data set [2], the IC50 was > 100000 nM. Besides, in the data set on HUVEC, the inhibition at 20 µM turned out to be 43%. The “tumor growth inhibition rates (TGI)” value in data set [3] turned out to be 82%. Further, the “Decrease (%) in intratumor blood vessel density” value in data set [4] came to 44%. For the same molecule, in data set [5], the “body weights of the mice” value was “no decreases in the body weights of the mice were observed” and the findings of toxicity entry is listed as “no findings of toxicity observed”.

The values above are taken from patent publication US7705053B2, “Benzamide derivative” (Chugai Seiyaku Kabushiki Kaisha, priority 2003, dated 2010).
